Like-named read-outs stand apart in the source and are kept apart here. One block for each compound: values may come before it.
Legend:
HIV-1 (H9/IIIB strain) = assay: Viking assay: antiviral potency in a multiple round HIV-1 infection assay in MT4-GFP cells; format: cell-based; details: Human immunodeficiency virus 1, IIIB, MT4-GFP cells infected with HIV-1 H9/IIIB, inhibition of reproductive ratio R0
Protocol: Assessing Antiviral Potency in a Multiple Round HIV-1 Infection Assay (Viking Assay)
The antiviral activity of the tenofovir prodrugs of the Examples herein was assessed in an assay that measures the rate of replication of HIV in cell culture, termed the Viking assay (VIral KINetics in Green cells) and performed as follows. HIV-1 replication was monitored using MT4-gag-GFP clone D3 (hereafter designated MT4-GFP), which are MT-4 cells modified to harbor a GFP reporter gene, the expression of which is dependent on the HIV-1 expressed proteins tat and rev. Productive infection of an MT4-GFP cell with HIV-1 results in GFP expression approximately 24 h post-infection. MT4-GFP cells were maintained at 37° C./5% CO2/90% relative humidity in RPMI 1640 supplemented with 10% fetal bovine serum, 100 U/ml penicillin/streptomycin, and 400 μg/ml G418 to maintain the reporter gene. For infections, MT4-GFP cells were placed in the same medium lacking G418 and infected overnight with HIV-1 (H9/IIIB strain) virus at an approximate multiplicity of infection of 0.01 in the same incubation conditions. Cells were then washed and re-suspended in either RPMI 1640 supplemented with 10% or 50% normal human serum (NHS) at 1.6×10^5 cells/mL (10% NHS or 50% NHS, respectively). Compound plates were prepared by dispensing compounds dissolved in DMSO into wells of 384 well poly-D-lysine-coated plates (0.2 μl/well) using an ECHO acoustic dispenser. Each compound was tested in a 10-point serial 3-fold dilution (typical final concentrations: 8.4 μM-0.42 nM). Controls included no inhibitor (DMSO only) and a combination of three antiviral agents (efavirenz, indinavir, an in-house integrase strand transfer inhibitor at final concentrations of 4 μM each). Cells were added (50 μL/well) to compound plates and the infected cells were maintained at 37° C./5% CO2/90% relative humidity.
Infected cells were quantified at two time points, ˜48 h and ˜72 h post-infection, by counting the number of green cells in each well using an Acumen eX3 scanner. The increase in the number of green cells over ˜24 h period gives the reproductive ratio, R0, which is typically 5-15 and has been shown experimentally to be in logarithmic phase (data not shown). Inhibition of R0 is calculated for each well, and IC50s determined by non-linear 4-parameter curve fitting.

[1] = Prodrug stability assay in bio-relevant media (FaSSIF with Pancreatin, GI tract stability); format: in vitro ADME; details: HPLC peak area of prodrug at 5 h / 0 h, 0.5 mg/mL Pancreatin in FaSSIF, 37° C.
Protocol: Prodrug Stability Assay in Bio-Relevant Media
The following assay was employed to evaluate the stability of the prodrugs in simulated gastrointestinal tract conditions. Preparation of fasted state simulated intestinal fluid (FaSSIF) using Phares SIF Powder was carried out according to protocols from Phare Drug Delivery AG (Baselland, Switzerland). For sample preparation, 10 μL stock solutions (10 mM) of prodrug substance in DMSO was added to 990 μL of 0.5 mg/mL Pancreatin solution (Fisher CAS#8049-47-6) in FaSSIF. Two samples were prepared for each compound. If the sample was a clear solution, it was directly analyzed by HPLC. If the sample was not clear, the sample was […] at 37° C. and observed 5 h later. If the sample was clear, HPLC analysis was directly performed. If the sample was still not clear, the sample was diluted with 100% ACN and assayed by HPLC. All the samples were vortexed for 3 min and observed before injection. For the diluted samples, the area is multiplied by a dilution factor when the data is analyzed. The analysis was carried out with an Agilent 1100 series HPLC with autosampler. The column was a Poroshell 120 EC-C18, 4.6×50 mm, […]. The flow rate was 1.8 mL/min, and the injection volume was 5 or 10 μL. UV detection was in the range 210-400 nm. The mobile phase consisted of solvent A (water plus 10 mM tetrabutylammonium bromide) and solvent B (acetonitrile) with a gradient of: 90% solvent A at 0 min, changing to 95% solvent B over 6 min, maintaining for 1.5 min, then reverting to 90% solvent A over 1.6 min. The HPLC peak area of the prodrug at 5 h was divided by the HPLC peak area of the prodrug at 0 h, to generate the % claimed parent ratio, which is summarized in Table 2 for gastrointestinal (GI) Tract stability.

[2] = 10% normal human serum, read-out: Viking, IC50 (10% NHS)
[3] = 50% normal human serum, read-out: Viking, IC50 (50% NHS)

Compound: CC(C)CC(CC(C)C)=NOP(=O)(CO[C@H](C)Cn1cnc2c(N)ncnc21)NC(C)(C)C(=O)OC(C)C (single isomer, unassigned) [Example 28]
IC50 (HIV-1 (H9/IIIB strain); [2]): 0.7 nM | IC50 (HIV-1 (H9/IIIB strain); [3]): 3.8 nM | GI Tract stability [1]: 93.1%

Compound: CC(C)OC(=O)[C@H](C)NP(=O)(CO[C@H](C)Cn1cnc2c(N)ncnc21)ON=C(C1CC1)C1CC1 (stereo partly drawn) [Example 10, isopropyl (((((R)-1-(6-amino-9H-purin-9-yl)propan-2-yl)oxy)methyl)(((dicyclopropylmethyl-ene)amino)oxy)phosphoryl)-L-alaninate]
IC50 (HIV-1 (H9/IIIB strain); [2]): 46.8 nM | IC50 (HIV-1 (H9/IIIB strain); [3]): 228 nM | GI Tract stability [1]: 95.0%

GI Tract stability [1]: 98.1%
Compound: CC(C)=NOP(=O)(CO[C@H](C)Cn1cnc2c(N)ncnc21)NC(C)(C)C(=O)OC(C)C (stereo partly drawn) [Example 22, isopropyl 2-(((R)-((((R)-1-(6-amino-9H-purin-9-yl)propan-2-yl)oxy)methyl)((propan-2-ylideneamino)oxy)phosphoryl)amino)-2-methylpropanoate; and isopropyl 2-(((S)-((((R)-1-(6-amino-9H-purin-9-yl)propan-2-yl)oxy)methyl)((propan-2-ylideneamino)oxy)phosphonyl)amino)-2-methylpropanoate]

Compound: butyl 2-(((R)-((((R)-1-(6-amino-9H- purin-9-yl)propan-2- yl)oxy)methyl)((propan-2- ylideneamino)oxy)phosphoryl)amino)- 2-methylpropanoate; and butyl 2-(((S)-((((R)-1-(6-amino-9H- purin-9-yl)propan-2- yl)oxy)methyl)((propan-2- ylideneamino)oxy)phosphoryl)amino)- 2-methylpropanoate [Example 23]
GI Tract stability [1]: 99.0%

Reference: patent publication US10450335B2, “Antiviral oxime phosphoramide compounds” (Merck Sharp & Dohme Corp., priority 2015, dated 2019)
